According to publication PMC13421293 (Thrombosis and Haemostasis, 2025):

Assays:
canine platelet = test system: canine platelet; parameters: method as in PMID 5554584; settings: commonly used concentrations; cited from earlier work
[1] = Concentrations of ticagrelor and active metabolite AR-C124910XX by LC-MS in unstable angina patients; settings: for AUC: AUC TPC, total exposure to ticagrelor, area under the ticagrelor plasma concentration curve, 0–360 min; for concentration at 15 min: 15 min post ticagrelor LD 180 mg; for concentration at 30 min: 30 min post ticagrelor LD 180 mg; for concentration at 45 min: 45 min post ticagrelor LD 180 mg; for concentration at 60 min: 60 min post ticagrelor LD 180 mg; for concentration at 120 min: 120 min post ticagrelor LD 180 mg; for concentration at 240 min: 240 min post ticagrelor LD 180 mg; for concentration at 360 min: 360 min post ticagrelor LD 180 mg
platelet reactivity = assay: Platelet reactivity by multiple electrode aggregometry (Multiplate) in unstable angina patients
[2] = 0–360 min post ticagrelor LD 180 mg
[3] = human, plasma, oral, 180 mg, Ticagrelor plasma concentration, Mean ± SD
[4] = human, plasma, oral, 180 mg, Ticagrelor plasma concentration, Median (Q1–Q3)
[5] = 15 min post ticagrelor LD 180 mg, MEA
[6] = 30 min post ticagrelor LD 180 mg, MEA
[7] = 45 min post ticagrelor LD 180 mg, MEA
[8] = 60 min post ticagrelor LD 180 mg, MEA
[9] = 120 min post ticagrelor LD 180 mg, MEA
[10] = 180 min post ticagrelor LD 180 mg, MEA
[11] = 240 min post ticagrelor LD 180 mg, MEA
[12] = time to reach low platelet reactivity after ticagrelor LD, MEA

## CCOCC [diethyl ether]
Canine platelet
  ADP-induced canine platelet aggregation: significant reduction

## [N-]=[N+]=O [nitrous oxide]
Canine platelet
  ADP-induced canine platelet aggregation: significant reduction

## FC(F)(F)C(Cl)Br (stereo not drawn) [halothane]
Canine platelet
  ADP-induced canine platelet aggregation: significant reduction

## CCCSc1nc(N[C@@H]2C[C@H]2c2ccc(F)c(F)c2)c2nnn([C@@H]3C[C@H](OCCO)[C@@H](O)[C@H]3O)c2n1 [Ticagrelor, ticagrelor]
[1]; [2]
  Ticagrelor maximum concentration, Mean ± SD: 699 ± 257 ng/mL
  Ticagrelor maximum concentration, Median (Q1–Q3): 680 (514–800) ng/mL
[1]; baseline
  Ticagrelor plasma concentration, Mean ± SD: 0 ng/mL
  Ticagrelor plasma concentration, Median (Q1–Q3): 0 ng/mL
[1]; human, plasma, oral, 180 mg, Mean ± SD
  AUC: 2310 ng·h/mL
[1]; human, plasma, oral, 180 mg, Median (Q1–Q3)
  AUC: 2070 ng·h/mL
[1]; [3]
  concentration at 15 min: 20 ± 29 ng/mL
  concentration at 30 min: 171 ± 237 ng/mL
  concentration at 45 min: 329 ± 353 ng/mL
  concentration at 60 min: 464 ± 379 ng/mL
  concentration at 120 min: 533 ± 243 ng/mL
  concentration at 240 min: 404 ± 136 ng/mL
  concentration at 360 min: 291 ± 94 ng/mL
[1]; [4]
  concentration at 15 min: 13 ng/mL
  concentration at 30 min: 69 ng/mL
  concentration at 45 min: 210 ng/mL
  concentration at 60 min: 316 ng/mL
  concentration at 120 min: 569 ng/mL
  concentration at 240 min: 402 ng/mL
  concentration at 360 min: 290 ng/mL
[1]; human, plasma, oral, 180 mg, Ticagrelor plasma concentration, Median (Q1–Q3), 180 min post ticagrelor LD 180 mg
  concentration at 180 min: 453 ng/mL
Platelet reactivity; [5]
  AUC 15 (platelet reactivity), Mean ± SD: 66.08 ± 26.54 U
  AUC 15 (platelet reactivity), Median (Q1–Q3): 66 (48–87) U
Platelet reactivity; [6]
  AUC 30 (platelet reactivity), Mean ± SD: 47.76 ± 27.79 U
  AUC 30 (platelet reactivity), Median (Q1–Q3): 36 (27–66) U
Platelet reactivity; [7]
  AUC 45 (platelet reactivity), Mean ± SD: 34.56 ± 22.95 U
  AUC 45 (platelet reactivity), Median (Q1–Q3): 28 (17–36) U
Platelet reactivity; [8]
  AUC 60 (platelet reactivity), Mean ± SD: 26.64 ± 17.75 U
  AUC 60 (platelet reactivity), Median (Q1–Q3): 26 (16–32) U
Platelet reactivity; [9]
  AUC 120 (platelet reactivity), Mean ± SD: 21.6 ± 13.37 U
  AUC 120 (platelet reactivity), Median (Q1–Q3): 21 (17–25) U
Platelet reactivity; [10]
  AUC 180 (platelet reactivity), Mean ± SD: 21.32 ± 12.03 U
  AUC 180 (platelet reactivity), Median (Q1–Q3): 22 (13–28) U
Platelet reactivity; [11]
  AUC 240 (platelet reactivity), Mean ± SD: 23.76 ± 16.86 U
  AUC 240 (platelet reactivity), Median (Q1–Q3): 22 (17–26) U
Platelet reactivity; 360 min post ticagrelor LD 180 mg, MEA
  AUC 360 (platelet reactivity), Median (Q1–Q3): 19 (12–25) U
Platelet reactivity; baseline, MEA, UA patients
  AUC 0 (platelet reactivity), Median (Q1–Q3): 73 (54–95) U
  AUC 0 (platelet reactivity, area under the aggregation curve), Mean ± SD: 76.36 ± 21.82 U
Platelet reactivity; [12]
  Time to AUC < 46 U, Mean ± SD: 43.8 ± 46.42
  Time to AUC < 46 U, Median (Q1–Q3): 30 (30–45)

## COC(F)(F)C(Cl)Cl [methoxyflurane]
Canine platelet
  ADP-induced canine platelet aggregation: significant reduction
Platelet reactivity; methoxyflurane added to ticagrelor LD vs ticagrelor alone, MEA AUC
  effect on platelet reactivity: inhibitory effect
